A short description of series [1]: DPPH radical scavenging assay. It counts as biochemical. The note with it: for Radical Scavenging Activity (%): compared to standard ascorbic acid (100%); for Final time of reaction: time to steady state. Here is the method:
The DPPH assay is based on the change in absorbance at 515 nm, upon reduction of the DPPH radical, by an antioxidant. The antioxidant activity of a putative antioxidant is measured by monitoring the decrease in absorbance when the colour of the solution fades. In this assay, the reaction between the test antioxidant and DPPH radical is allowed to continue until it reaches a steady state. The amount of the radical quenched when steady state is reached is dependent on the antioxidant capacity and the concentration of the antioxidant. 100 μl (1 mg/3 ml) of the respective sample was added to 3.9 ml DPPH solution (25 mg/L in methanol). The decrease in absorbance at 515 nm was monitored using a Unicam UV-visible spectrophotometer, until the reaction reached steady state.

In series [2] the test system is Bcl-2. Briefly: Western blot of Bcl-2 expression in UVA-irradiated HaCaTs. It counts as cell-based, human. The note with it: for % Bcl-2 Expression: relative to control (100%). The text has this:
(§1) Apoptosis can take place through the extrinsic pathway or the intrinsic pathway. The extrinsic pathway involves transmembrane receptor-mediated interactions which involve members of the tumour necrosis factor (TNF). The intrinsic pathway is a mitochondrial-initiated event and thus is of interest for this study. The intrinsic pathway can progress in a caspase-dependent or independent way. The caspase-independent route involves a protein called AIF which when released from the mitochondria, translocates directly to the nucleus and induces apoptosis. The alternative caspase-dependent route involves members of the Bcl-2 family of proteins. This family of proteins is responsible for regulating the permeability of the mitochondrial membrane and can be either pro-apoptotic or anti-apoptotic; Bcl-2 is anti-apoptotic while Bax is pro-apoptotic. The cells' sensitivity to apoptotic stimuli depends on the balance of pro-apoptotic (Bax) and anti-apoptotic (Bcl-2) proteins. […] An excess of Bax results in the cells being more susceptible to apoptosis, and an excess of Bcl-2 renders the cells more resistant to apoptosis. To determine the nature of the anti-apoptotic effect mediated by Polymer Compound 57 and hydroxytyrosol due to UVA irradiation, the Bax/Bcl-2 ratio was studied using Western blot analysis. To evaluate the expression of Bcl-2, Bax and AIF, the cells were cultured and treated with varying concentrations between 200 and 1000 μM of Polymer Compound 57 and hydroxytyrosol for 18 hrs, and then irradiated at 22.3 J/cm^2. Protein extraction was conducted and proteins were quantified using the BCA method. […] The purpose of this control is to ensure that it is only the UVA rays that result in the observed effects, and not the heat in the chamber. Alpha tubilin was used as a loading control in each experiment to ensure that the results were quantified correctly. Since the Western blot results are quantified by band size, it is important to ensure that each sample has the same amount of protein when loaded and the loading control helps to determine this. The band obtained when the proteins are probed with the loading control represent the amount of protein in that loaded sample.
For orientation: In western blotting, separated proteins are transferred to a membrane and probed.

A short description of series [3]: FRAP assay (iron (III) reduction ability). It counts as biochemical. The note with it: 1 ml (1 mg/3 ml) sample. The method, then: The FRAP assay measures the ability of an antioxidant to reduce a ferroin analog, the Fe complex of tripyridyltriazine, Fe (TPTZ)^3+, to the intensely blue coloured Fe^2+ in an acidic medium. Results are obtained as absorbance increases at 593 nm and can be expressed relative to an antioxidant standard, ascorbic acid in this case.
1 ml (1 mg/3 ml) of the respective sample was added to 2.5 ml of potassium phosphate buffer (pH 7, 500 mM) 2.5 ml potassium ferricyanide was added. This was followed by incubation at 50° C. for 20 min. 10% (v/v) trichloracetic acid was added to stop the reaction. 2.5 ml of water was then added to 2.5 ml of the reaction. Iron chloride (0.5 ml) was added. The reaction was allowed to stand for 30 min after which the absorbance was read at 700 nm.

In series [4] the test system is UVA-induced H2O2 production in keratinocytes. Briefly: ROS assay (DHR 123, FACS) in UVA-irradiated keratinocytes. It counts as cell-based, human. The text has this: UVA irradiation of cultured human skin cells results in over-elevated levels of H2O2 and other ROS (reactive oxygen species), with H2O2 being the predominant species. Dihydrorhodamine (DHR 123) can be used to detect H2O2 produced following irradiating the cells with UVA. […] The mean fluorescence (MF), read on a fluorescent activated cell sorter (FACS) machine thus indicates intracellular H2O2 production. To elucidate the effect that Polymer Compound 57 would have on the over-expression of ROS due to irradiation, H2O2 production in keratinocytes was measured. The cells were first treated with the various concentrations of the Polymer Compound 57, irradiated with UVA and then exposed to the dye DHR 123.

The test system of series [5] is HaCaTs. The experiment in a line: XTT cell viability assay in HaCaTs. It counts as cell-based, human. The method, then: To evaluate the toxicity of Polymer Compound 57 an XTT assay was conducted. The assay is based on the ability of viable cells to reduce yellow XTT tetrazolium salts to an orange formazan which is then measured at an absorbance of 450 nm. The HaCaTs were incubated overnight with increasing concentrations of Polymer Compound 57. Cell viability was then evaluated by adding the XTT solution, incubating for 4 hrs at 37° C., and then reading the absorbance at 450 nm.
To further explore the effect of the antioxidants a dose and time response study was carried out to determine the long term effect of Polymer Compound 57.
(In general: Tetrazolium dyes change colour on reduction, which living cells bring about.)

Series [6] concerns AIF. The experiment in a line: Western blot of AIF expression in UVA-irradiated HaCaTs. It counts as cell-based, human. Particulars: for % AIF Expression: relative to control (100%).
Excerpt: as §1

Series [7] deals with Bax. The experiment in a line: Western blot of Bax expression in UVA-irradiated HaCaTs. It counts as cell-based, human. Particulars: for % Bax Expression: relative to control (100%).
Excerpt: as §1

For series [8], the system named is low density lipoprotein (LDL). The experiment in a line: LDL oxidation assay (conjugated diene formation). It counts as biochemical. Particulars: 50 μM test antioxidant; LDL oxidized with 5 μM CuCl2; relative to ascorbic acid. The method, then: Oxidation of low density lipoprotein (LDL) was performed according to the method developed by Nardini et al (1995). LDL was dialyzed in a 200 fold volume of PBS of pH 7 in the dark for 18 hrs. 100 μg/ml LDL, determined with the Bradford method, was oxidized with 5 μM CuCl2 for 4 hrs at 37° C. in the presence and absence of 50 μM test antioxidant. Conjugated diene formation was measured spectroscopically at 234 nm using a Unicam UV-visible spectrophotometer.
The antioxidant ability of Polymer Compound 57 to inhibit LDL oxidation was assessed by adding it to a reaction mixture containing LDL previously treated with copper to initiate the oxidation. The antioxidant ability of the compound was measured based on the increase in absorbance due to diene conjugation at 234 nm.

Several values for one entry are separate records, joined by “and”; a condition that tells them apart may be missing. Identical values can stand only once.

With `O=C1O[C@H]([C@@H](O)CO)C(O)=C1O` [Ascorbic acid, reference compound], in series [1] (0.002M sample), the “Radical Scavenging Activity (%)” value stood at 100% and the “Final time of reaction” value is listed as 4 min.
For `OCCc1cc(O)c(O)c(-c2cc(CCO)cc(O)c2O)c1` [Polymer Compound 57], the “% Bcl-2 Expression” value in series [2] (200 μM) worked out at 50%; in series [2] (333 μM) it was 84%; in series [2] (1000 μM), 118%. In series [2] (500 μM), the “increase in Bcl-2 levels of expression relative to the control” value worked out at 16%. Also, the “antioxidant activity equivalent of ascorbic acid” value in series [3] is 363 mg/L. Moreover, the “mean fluorescence (ROS level) relative to control of 100%” value is listed as 87-100% in series [4] (200 μM) and 85% in series [4] (333 μM). The “long term toxicity to HaCaTs” value in series [5] (3 day period, concentrations non-toxic over 24 hr) is “non-toxic”. Further, the “concentrations resulting in marked decreases in cell viability” value in series [5] (HaCaTs, overnight incubation) is reported as “higher than 500 μM”. For the same compound, the “concentrations with no negative effect on cell viability” value in series [5] (HaCaTs, overnight incubation) is 200 to 500 µM. Further, the results for the “AIF levels reduced to, relative to the control” value in series [6] (200 μM), in series [6] (333 μM) and in series [6] (500 μM) were 28%, 32% and 32%, respectively. The “% AIF Expression” value was 78% in series [6] (200 μM), 74% in series [6] (333 μM) and 38% in series [6] (1000 μM). For the same compound, the “Radical Scavenging Activity (%)” value in series [1] (0.0004M sample) worked out at 86.7%. Besides, the “Final time of reaction” value in series [1] (0.0004M sample) is on record as 7 min. Moreover, the “reduction of Bax levels relative to the control” value in series [7] (200 μM) is 75% and 70%; in series [7] (333 μM) it was 87.5%; in series [7] (500 μM), 87.5%. Also, the results for the “% Bax Expression” value in series [7] (200 μM), in series [7] (333 μM) and in series [7] (1000 μM) were 31%, 17% and 14%, respectively. In addition, in series [7] ("lowest concentration" as printed), the “decrease of Bax levels relative to the control (100%)” value is given as 85%. Also, in series [8], the “effect on absorbance at 234 nm due to diene conjugation” value is recorded as “absorbance-decreasing effect”.
In the case of `OCCc1ccc(O)c(O)c1` [Hydroxytyrosol], the figures for the “% Bcl-2 Expression” value in series [2] (200 μM), in series [2] (333 μM) and in series [2] (1000 μM) were 83%, 90% and 110%, respectively. Also, the “increase in Bcl-2 levels of expression relative to the control” value in series [2] (1000 μM) worked out at 7%. Besides, the “% AIF Expression” value in series [6] (200 μM) came out at 91%; in series [6] (333 μM) it was 82%; in series [6] (1000 μM), 42%. In series [6] (1000 μM), the “reduction of AIF levels relative to the control” value was 15%. Moreover, the entries for the “% Bax Expression” value in series [7] (200 μM), in series [7] (333 μM) and in series [7] (1000 μM) were 128%, 116% and 100%, respectively.

For the origin of these results see US8663608B2, “Hydroxytyrosol compounds” (University of Cape Town, priority 2009, dated 2014).
